# Like-named read-outs stand apart in the source and are kept apart here.
# How the values were obtained:
# [1] = tested on: Vancomycin-resistant (VanA) Enterococcus faecium ATCC 51559; assay: microbe, parasite or virus in culture; details: for MIC: Enterococcus faecium, ATCC51559 / VRE, read-out: MIC VRE
# Method in brief: (§1)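 Compounds were serially diluted twofold from 8 to 0.003 µg mL^−1 in Mueller Hinton broth. Inocula came from overnight cultures diluted 40-fold and grown a further 2–3 h.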
# [2] = tested on: Multi-drug-resistant S. pneumoniae ATCC 700677; assay: microbe, parasite or virus in culture; details: for MIC: Streptococcus pneumoniae, ATCC700677, read-out: MIC MDR S.P.
# Method in brief: as §1
# [3] = tested on: Vancomycin-intermediate S. aureus NRS1; assay: microbe, parasite or virus in culture; details: for MIC: Staphylococcus aureus, NRS1 / VISA, read-out: MIC VISA
# Method in brief: as §1
# [4] = tested on: Methicillin-sensitive S. aureus ATCC 29213; assay: microbe, parasite or virus in culture; type: cell-based, Staphylococcus aureus; details: for MIC: Staphylococcus aureus, ATCC 29213 / MSSA
# Description: Antimicrobial activity of compounds was tested against a number of bacterial strains by broth microdilution (BMD) assay with MIC determination, including S. aureus (MSSA ATCC® 29213™, MRSA ATCC® 43300™, VISA NARSA NRS1, VISA NARSA NRS4), Streptococcus pneumoniae (MDR ATCC® 700677™) and Enterococcus faecium (MDR VanA ATCC® 51559™). ATCC strains were sourced from the American Type Culture Collection and NRS strains from NARSA (Network on Antimicrobial Resistance in S. aureus) via BEI Resources (www.beiresources.org). All compounds were prepared to 160 µg mL^−1 solution in water from a stock solution of 1 mM concentration.
# […] […] Standards ranged from 64 to 0.03 µg mL^−1 and compounds from 8 to 0.003 µg mL^−1 with final assay volumes of 100 µL per well. Gram-positive bacteria were cultured in Mueller Hinton broth (MHB) (Bactolaboratories, Cat. no. 211443) at 37 °C overnight. A sample of each culture was then diluted 40-fold in fresh MHB and incubated at 37 °C for 2–3 h. The resultant mid-log phase cultures were added to the compound-containing 96-well plates to give a final cell density of 5 × 10^5 colony forming unit (CFU) mL^−1. All the plates were covered and incubated at 37 °C for 24 h. MICs were the lowest concentration showing no visible growth.
# Cytotoxicity MTT assay [5] = type: cell-based, human; details: human
# [6] = tested on: Methicillin-resistant S. aureus ATCC 43300; assay: microbe, parasite or virus in culture; details: for MIC: Staphylococcus aureus, ATCC43300|MRSA
# Method in brief: as §1
# [7] = tested on: Vancomycin-resistant S. aureus NARSA VRS4; assay: microbe, parasite or virus in culture; type: cell-based, Staphylococcus aureus; details: for MIC: Staphylococcus aureus, VRSA, read-out: MIC VRSA
# Cytotoxicity MTT assay [8] = type: cell-based, human; details: human; remark: listed apart in the source
# Method in brief: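 Duplicate wells were used, with viability calculated against untreated and positive-control wells. Readout was MTT reduction: 2 h with 0.4 mg mL^−1 MTT, formazan dissolved in DMSO, absorbance at 570 nm. Before that, compound was applied 24 h at 37 °C over 100–0.046 µM (threefold dilutions) to HepG2 or HEK293 cells seeded 24 h earlier in DMEM/1% FBS.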
# [9] = read-out: MIC S. aureus ATCC29213 MSSA, NBS
# [10] = read-out: MIC S. aureus ATCC29213 MSSA, PP
# [11] = read-out: MIC S. aureus ATCC29213 MSSA, PS
# [12] = read-out: MIC S. aureus ATCC29213 MSSA, PS+P-80
# [13] = 24 h, MTT, 1% FBS, read-out: Cytotoxicity CC50 HepG2
# [14] = 24 h, read-out: MIC MRSA, S. aureus ATCC 43300, NBS plates, MHB, 24 h, substance alone
# [15] = read-out: MIC S. aureus ATCC 43300 MRSA, NBS, non-binding surface plate
# [16] = read-out: MIC S. aureus ATCC 43300 MRSA, PP, polypropylene plate
# [17] = read-out: MIC S. aureus ATCC 43300 MRSA, PS+P-80, polystyrene plate with 0.002% polysorbate-80
# [18] = read-out: MIC S. aureus ATCC 43300 MRSA, PS, polystyrene plate, no polysorbate-80
# [19] = 24 h, MTT, 1% FBS, read-out: Cytotoxicity CC50 HEK293
SMILES,MIC [1],MIC [2],MIC [3],MIC ([4]; read-out: MIC MSSA),"MIC [4, 9]","MIC [4, 10]","MIC [4, 11]","MIC [4, 12]",CC50 at 24 h (Cytotoxicity MTT assay [5]; [13]),"MIC [6, 14]","MIC [6, 15]","MIC [6, 16]","MIC [6, 17]","MIC [6, 18]",MIC [7],CC50 at 24 h (Cytotoxicity MTT assay [8]; [19]),other results
"CN[C@H](CC(C)C)C(=O)N[C@H]1C(=O)N[C@@H](CC(N)=O)C(=O)N[C@H]2C(=O)N[C@H]3C(=O)N[C@H](C(=O)N[C@H](C(=O)O)c4cc(O)cc(O)c4-c4cc3ccc4O)[C@H](O[C@H]3C[C@](C)(N)[C@@H](O)[C@H](C)O3)c3ccc(c(Cl)c3)Oc3cc2cc(c3O[C@@H]2O[C@H](CO)[C@@H](O)[C@H](O)[C@H]2O[C@H]2C[C@](C)(NCc3ccc(-c4ccc(Cl)cc4)cc3)[C@@H](O)[C@H](C)O2)Oc2ccc(cc2Cl)[C@H]1O [Compound 5, Oritavancin, reference compound]",0.125 µg/mL,0.06 µg/mL,1 µg/mL,≤ 0.016 µg/mL,≤ 0.016 µg/mL,1 µg/mL,1 µg/mL,0.031 µg/mL,25 µM,0.06 µg/mL,≤ 0.016 µg/mL,1 µg/mL,≤ 0.016 µg/mL,1 µg/mL,0.125 µg/mL,29 µM,
"CN[C@H](CC(C)C)C(=O)N[C@H]1C(=O)N[C@@H](CC(N)=O)C(=O)N[C@H]2C(=O)N[C@H]3C(=O)N[C@H](C(=O)N[C@H](C(=O)O)c4cc(O)cc(O)c4-c4cc3ccc4O)[C@H](O)c3ccc(c(Cl)c3)Oc3cc2cc(c3O[C@@H]2O[C@H](CO)[C@@H](O)[C@H](O)[C@H]2O[C@H]2C[C@](C)(N)[C@H](O)[C@H](C)O2)Oc2ccc(cc2Cl)[C@H]1O [Compound 1, Vancomycin]",> 64 µg/mL,1 µg/mL,4 µg/mL,1 µg/mL,1 µg/mL,1 µg/mL,2 µg/mL,1 to 2 µg/mL,6300 µM,1 µg/mL,1 µg/mL,2 µg/mL,2 µg/mL,2 µg/mL,> 64 µg/mL,5900 µM,
"CNC(=O)[C@H](CCCCNC(=O)[C@H]1NC(=O)[C@H]2NC(=O)[C@H](NC(=O)[C@@H]3NC(=O)[C@H](CC(N)=O)NC(=O)[C@H](NC(=O)[C@@H](CC(C)C)NC)[C@H](O)c4ccc(c(Cl)c4)Oc4cc3cc(c4O[C@@H]3O[C@H](CO)[C@@H](O)[C@H](O)[C@H]3O[C@H]3C[C@](C)(N)[C@H](O)[C@H](C)O3)Oc3ccc(cc3Cl)[C@H]2O)c2ccc(O)c(c2)-c2c(O)cc(O)cc21)NC(=O)[C@H](CCCCN)NC(=O)[C@H](CCCCN)NC(=O)[C@H](CCCCNC(=O)c1ccc(Oc2ccccc2)cc1)NC(=O)c1ccc(Oc2ccccc2)cc1 [Compound 24, POB2K-KK-K(Vancomycin)-NHMe]",,,,,,,,,,,,,,,,,"MIC VRE ([1]; ATCC 51559): 0.5 µg/mL; MIC MDR S.P. ([2]; ATCC 700677): <0.003 µg/mL; MIC VISA ([3]; Vancomycin-intermediate NRS1): 0.125 µg/mL; MIC MSSA ([4]; ATCC 29213): ≤0.016 µg/mL; MIC S. aureus ATCC29213 MSSA, PP ([4]; ATCC 29213): 1 µg/mL; MIC S. aureus ATCC29213 MSSA, PS ([4]; ATCC 29213): 2 µg/mL; MIC S. aureus ATCC29213 MSSA, PS+P-80 ([4]; ATCC 29213): 0.031 µg/mL; CC50 at 24 h (Cytotoxicity MTT assay [5]): 100 µM; MIC S. aureus ATCC 43300 MRSA, NBS ([6]; ATCC 43300): ≤ 0.016 µg/mL; MIC S. aureus ATCC 43300 MRSA, PP ([6]; ATCC 43300): 1 µg/mL; MIC S. aureus ATCC 43300 MRSA, PS ([6]; ATCC 43300): 2 µg/mL; MIC S. aureus ATCC 43300 MRSA, PS+P-80 ([6]; ATCC 43300): ≤ 0.016 µg/mL; MIC VRSA ([7]; S. aureus NARSA VRS4): 0.08 µg/mL; CC50 at 24 h (Cytotoxicity MTT assay [8]): 140 µM"

# From PMC5750218, “Protein-inspired antibiotics active against vancomycin- and daptomycin-resistant bacteria” (Nature Communications, 2018)
